# Reference: ChEMBL document CHEMBL1629699, “Cell wall thickening is not a universal accompaniment of the daptomycin nonsusceptibility phenotype in Staphylococcus aureus: evidence for multiple resistance mechanisms” (Antimicrob Agents Chemother, 2010)
# Key:
# Cell membrane [1] = assay: Binding affinity to daptomycin-resistant Staphylococcus aureus REF2145 cell membrane assessed as amount of compound bound at 8 ug after 10 mins
# Cell membrane [2] = assay: Binding affinity to methicillin-susceptible Staphylococcus aureus 11/11 cell membrane assessed as amount of compound bound at 8 ug after 10 mins
# Staphylococcus aureus [3] = assay: AUC in methicillin-resistant sStaphylococcus aureus 11/11; conditions: in vitro population analysis
# Cell membrane [4] = assay: Binding affinity to methicillin-susceptible Staphylococcus aureus 11/11 cell membrane assessed as amount of compound bound at 6 ug after 10 mins
# Staphylococcus aureus [5] = assay: Antimicrobial activity against Staphylococcus aureus CB184 after 24 hrs by Etest; conditions: CB184, 24 h
# Staphylococcus aureus [6] = assay: Antimicrobial activity against Staphylococcus aureus CB1482 after 24 hrs by plate reader analysis; conditions: CB1482, 24 h
# Staphylococcus aureus [7] = assay: Antimicrobial activity against Staphylococcus aureus CB5035 by Etest; type: functional
# Staphylococcus aureus [8] = assay: Antimicrobial activity against Staphylococcus aureus BMC1001 by Etest
# Staphylococcus aureus [9] = assay: Antimicrobial activity against Staphylococcus aureus CB5036 by Etest; type: functional
# Staphylococcus aureus [10] = assay: Antimicrobial activity against Staphylococcus aureus CB5053 by Etest
# Staphylococcus aureus [11] = assay: Antimicrobial activity against Staphylococcus aureus CB5054 by Etest; type: functional
# Staphylococcus aureus [12] = assay: Antimicrobial activity against Staphylococcus aureus BMC1002 by Etest; type: functional
# Cell membrane [13] = assay: Binding affinity to daptomycin-resistant Staphylococcus aureus REF2145 cell membrane assessed as amount of compound bound at 6 ug after 10 mins
Compound,Activity (Cell membrane [1]),Activity (Cell membrane [2]),AUC (Staphylococcus aureus [3]),Activity (Cell membrane [4]),MIC (Staphylococcus aureus [5]),MIC (Staphylococcus aureus [6]),MIC (Staphylococcus aureus [7]),MIC (Staphylococcus aureus [8]),MIC (Staphylococcus aureus [9]),MIC (Staphylococcus aureus [10]),MIC (Staphylococcus aureus [11]),MIC (Staphylococcus aureus [12]),Activity (Cell membrane [13])
CN[C@H](CC(C)C)C(=O)N[C@H]1C(=O)N[C@@H](CC(N)=O)C(=O)N[C@H]2C(=O)N[C@H]3C(=O)N[C@H](C(=O)N[C@H](C(=O)O)c4cc(O)cc(O)c4-c4cc3ccc4O)[C@H](O)c3ccc(c(Cl)c3)Oc3cc2cc(c3O[C@@H]2O[C@H](CO)[C@@H](O)[C@H](O)[C@H]2O[C@H]2C[C@](C)(N)[C@H](O)[C@H](C)O2)Oc2ccc(cc2Cl)[C@H]1O [VANCOMYCIN],1.78 µg/mL,1.81 µg/mL,5.96 µg/mL,,,,,,,,,,
CCCCCCCCCC(=O)N[C@@H](Cc1c[nH]c2ccccc12)C(=O)N[C@H](CC(N)=O)C(=O)N[C@@H](CC(=O)O)C(=O)N[C@@H]1C(=O)NCC(=O)N[C@@H](CCCN)C(=O)N[C@@H](CC(=O)O)C(=O)N[C@H](C)C(=O)N[C@@H](CC(=O)O)C(=O)NCC(=O)N[C@H](CO)C(=O)N[C@@H]([C@H](C)CC(=O)O)C(=O)N[C@@H](CC(=O)c2ccccc2N)C(=O)O[C@@H]1C,,,8.41 µg/mL,2.03 µg/mL,4 µg/mL,0.5 µg/mL,0.38 µg/mL,0.5 µg/mL,2 µg/mL,0.5 µg/mL,2 µg/mL,2 µg/mL,0.79 µg/mL
